Experiments:
[1] = tested on: p38 MAPK in differentiated PC12 cells; assay: Immunolocalization of activated p38 MAPK in neuronal cells; type: cell-based, rat; settings: 10 and 20 min, FIG. 26
Procedure: Immunolocalization of activated p38 MAPK in neuronal cells. Cells were treated as described above, and were plated on glass cover-slips which had been soaked in 10 μg/mL of mouse laminin. Following differentiation, neuronal cells were treated with soluble Aβ1-40 (5 μM) or anasomycin (20 μM, a known stimulator of p38 MAPK) for 10 and 20 min, and immediately fixed in 4% paraformaldehyde in 0.1 M PBS, pH 7.4 for 30 min at 4° C. Cells were washed multiple times in PBS, and incubated for 3 h with a phospho-specific antibody recognizing active active p38 MAPK. Cells were then washed multiple times in PBS and incubated with a secondary HRP-conjugated antibody. Immunostaining was performed using the DAKO ABC kit, cells were counterstained with hematoxylin-eosin, and cells were then observed under a microscope.

[2] = tested on: rat aortae (aortic rings); assay: Vessel bath vasoactivity assay: ET-1-induced vasoconstriction of rat aortic rings and its enhancement by Aβ or sPLA2; type: cell-based
Procedure: Vessel experiments. Freshly dissected aortae were prepared from normal male Sprague-Dawley rats (7-8 months old, purchased from Zivic Miller, Zelienople, Pa.) as previously described by Paris et al, Exp Neurol 1998 and Exp Neurol 1999. Rat aortae were segmented into rings and suspended in Kreb's buffer on hooks connected to a tensiometer linked to a MacLab system. Aortic rings were equilibrated for 2 hours, in 7 mL tissue baths containing Kreb's buffer oxygenated with 95% O2: 5% CO2, and thermoregulated to 37° C. A baseline tension of 2 g was applied to each ring, and the first set of aortic rings was pretreated with the various compounds named above either alone or in combination with Aβ peptides. After 5 minutes of incubation in the presence or absence of Aβ, this first set of vessels was subjected to a dose range of ET-1 (from 1 nM to 5 nM). A second set of vessels was treated with 1 μM of Aβ peptides prior to the addition of ET-1. A third set (control) received only ET-1 treatment. Each ET-1 dose was added only after the constriction response to the previous dose had reached a plateau. In all cases the means ±1 standard error (SE) of the percentage vasoconstriction increase over baseline were determined for each dose of ET-1 used.
(§1) Statistical analysis. Analysis of variance (ANOVA) was used to analyze the data, with post-hoc comparisons of means carried out where appropriate by Sheffe's or Bonferonni's methods. As previously described (Paris et al., Neurosci Lett, 1998), a significant interactive term by ANOVA was taken as evidence that both drug x and Aβ are modulating a common signal transduction pathway. […] Levene's test for equality of variance followed by t-test for independent samples was used for single mean comparisons. Alpha levels were set at 0.05 for all analyses. Analyses were performed using SPSS for Windows release 9.5.

[3] = tested on: intact rat aortae (aortic rings); assay: [3H]AA release in intact rat aortae; type: cell-based; settings: 5 minutes, then ET-1 dose range
Procedure: Measurement of [^3H]AA release in intact rat aortae. Aortic rings (1.5 mm long) were placed in 1 mL of physiological saline solution (PSS, containing 130 mM NaCl, 5 mM KCl, 1.5 mM CaCl2, 1.2 mM MgCl2, 10 mM HEPES, and 10 mM glucose adjusted to pH 7.2 with NaOH) and incubated with 2.5 μCi of [^3H]AA (specific activity of 91.8 Ci/mmol) for 24 h at 4° C. Rat aortae were subsequently washed in 50 mL of Kreb's buffer and then subjected to the vasoactivity assay. Initial background [^3H]AA release was determined following 30 min of equillibration for each aortic ring prior to treatment by removing 200 μL of Kreb's buffer (total volume of 7 mL each) from each bath, and measuring radioactivity (in cpm) after the addition of 1 mL of scintillant (EcoLume, ICN Inc., Calif.) using a liquid scintillation counter (1209 Rackbeta, WALLAC Inc., Md.). Subsequently, aortic rings were treated with sPLA2 alone or Aβ1-40 (1 μM) in the presence or absence of a MEK1/2 inhibitor (PD 98059) or a cPLA2 inhibitor (AACOCF3) for 5 min, or went untreated for the same length of time (control). Quantification of [^3H]AA release was then preformed as described above. All aortic rings were then subjected to a dose range of ET-1 (1, 2.5, and 5 nM), and radioactivity was measured 5 min after the first dose of ET-1 (1 nM), and 20 min after the second (2.5 nM) and third (5 nM) doses of ET-1. Radioactivity incorporated into each ring was determined by placing the aortic ring in 1 mL of scintillant and assaying as described above. Results are expressed as the means ±1 SE of the percentage of [^3H]AA incorporated for each aortic ring [([^3H]AA released—[^3H]AA initial background)/incorporated [^3H]AA].
as §1

N9 microglial cells = assay: Leukotriene B4 (LTB4) ELISA on microglial cell supernatants; type: cell-based, murine; settings: 500 nM, 18 hours; FIG. 23
Procedure: Leukotriene -B4 (LTB4) enzyme-linked immunoabsorbant assay (ELISA). Quantitative determination of LTB4 levels was made using a competitive binding ELISA (R&D Systems, Minneapolis, Minn.) designed to measure LTB4 in cell culture supernatants (as described in Paris et al., Exp Neurol 1999). A murine microglial cell line (N9) was provided by Dr. Paola Ricciardi-Castagnoli (Cellular Pharmacology Center, Milan, Italy) and were grown in RPMI medium supplemented with five percent fetal calf serum, 2 mM glutamine, 100 U/mL penicillin, […] streptomycin and 0.05 mM 2-mercaptoethanol. Microglial cells were seeded at 50,000 cells/well in 6-well plates (Falcon, France) and treated with Aβ1-40 (500 nM), drugs which oppose the PLA2/AA/5-LOX/COX-2 pathway, or untreated (control) and incubated for 18 hours. Cell supernatants were then collected and diluted 10-fold in assay buffer. 50 μL of diluted samples were then used in the assay, and each sample was assayed in duplicate. Manipulations were performed in accordance with the manufacturer's instruction. A spectramax 250 spectrophotometer (Molecular Devices, San Diego, USA) was used to measure absorbance at 405 nm and a standard curve was plotted using a 4-parameter model.
as §1

N9 microglia = assay: [3H]AA release in cultured microglial cells; type: cell-based, murine; settings: FIG. 24
Procedure: Measurement of [^3H]AA release in cultured cells. Microglial cells were cultured as described above, seeded at 50,000 cells/well in 6-well plates (Falcon, France), and incubated with 0.4 μCi/mL [^3H]AA for 18 h. Cells were washed multiple times with 1 mL of complete medium and were then treated with 1 μM of Aβ1-40 or 10 U/mL of sPLA2 for 5 h. Cell culture supernatants were collected each hour following treatment and radioactivity was quantified as described above.
as §1

[4] = tested on: NGF-β differentiated PC12 cells; assay: [3H]AA release in neuronal cells; type: cell-based, rat; settings: FIG. 25
Procedure: Measurement of [^3H]AA release in neuronal cells (cultured differentiated PC12 cells). A rat pheochromocytoma cell line (PC12) was grown in Kahn's modification of F12 medium supplemented with 10% fetal calf serum, 100 U/mL penicillin and […] streptomycin. PC12 cells were seeded at 35,000 cells/well and differentiated with 60 ng/mL NGF-β for 5-6 days and then maintained with 5 ng/mL NGF-β thereafter. PC12 cells were treated with 0.4 μCi/mL of [^3H]AA for 18 h and were washed multiple times with 1 mL of complete medium to remove unincorporated [^3H]AA. Cells were then treated with 1 μM of Aβ1-40 or 40 U/mL of sPLA2 for 5 h. Cell culture supernatants were collected each hour following treatment and radioactivity was quantified as described above.
Statistical analysis. Analysis of variance (ANOVA) was used to analyze the data, with post-hoc comparisons of means carried out where appropriate by Sheffe's or Bonferonni's methods. Levene's test for equality of variance followed by t-test for independent samples was used for single mean comparisons. Alpha levels were set at 0.05 for all analyses. Analyses were performed using SPSS for Windows release 9.5.

[5] = tested on: rat aortae (aortic rings); settings: freshly solubilized; previously shown (Crawford et al., 1998); cited from earlier work

For COc1ccc(C[C@H]2NC[C@H](O)[C@H]2OC(C)=O)cc1 [anisomycin], the “activation of p38 MAPK (phospho-specific immunostaining)” value ([1]; 20 μM) was “brown immunostaining is intensified, and a strong nuclear staining is evident”.

In the case of “Aβ1-40: soluble β-amyloid peptide containing forty amino acids, obtained from QCB”, the “enhancement of ET-1-induced vasoconstriction versus Aβ-free condition” value ([2]; 50 nM dose, across 2.5 nM and 5 nM ET-1, FIG. 1) is reported as “significant difference”, the “duration of ET-1-induced vasoconstriction (vasotension t=0 to 10 minutes after 5 nM ET-1)” value ([2]; 1 μM, 5 minutes prior to ET-1 (1, 2.5, 5 nM), FIG. 2) is reported as “induces a long-lasting vasoconstriction” and the “lowest dose giving sustained constriction / enhancement of ET-1-induced vasoconstriction” value ([2]; freshly solubilized peptide) is reported as ≤ 50 nM. For the same molecule, the “[3H]AA release from aortic rings” value ([3]; Aβ1-40 1 μM, FIG. 21) was “enhances the release of [^3H]AA from aortic rings”, the “microglial LTB4 release” value (N9 microglial cells) was “increased release of LTB4” and the “[3H]AA release in N9 microglia” value (N9 microglia; 1 μM for 5 h) was “stimulates AA release from N9 microglia”. The “[3H]AA release in neuronal cells” value ([4]; 1 μM for 5 h) was “stimulates AA release from neuronal cells”, the “activation of p38 MAPK (phospho-specific immunostaining)” value ([1]; Aβ1-40 5 μM) was “increases the phosphorylation of p38 MAPK” and the “magnitude of constriction induced by ET-1 in isolated mammalian vessels” value [5] was “increase the magnitude of constriction induced by ET-1”.

In the case of “type I sPLA2: secretory porcine pancreatic PLA2 (type I sPLA2), purchased from Sigma”, the “effect on ET-1-induced vasoconstriction” value ([2]; 1 U/mL, 5 minutes prior to ET-1 dose range, FIG. 6) is reported as “able to enhance the vasoconstriction induced by ET-1”, the intrinsic vasoactive properties ([2]; added directly into the vessel bath, without ET-1) is reported as “does not display intrinsic vasoactive properties” and the “[3H]AA release from aortic rings” value ([3]; 10 U/mL, FIG. 20) is reported as “increased release of [^3H]AA”. The “[3H]AA release in N9 microglia” value (N9 microglia; 10 U/mL for 5 h) was “induces the release of [^3H]AA” and the “[3H]AA release in neuronal cells” value ([4]; 40 U/mL for 5 h) was “induces the release of [^3H]AA”.

Source: US7605149B1, “Modulation of the phospholipase A2 pathway as a therapeutic” (University of South Florida, priority 1998, dated 2009)
